One experiment concerns the target ComD1 receptor (Streptococcus pneumoniae serotype 2, UniProt A0A0H2ZM50). The experiment can be described thus: cell-based. Type of experiment: cell-based. The conditions noted are these: for maximal induction of comX compared to CSP1 / potency higher than CSP1-cyc(Orn6D10): ComD1. An excerpt: (§1) Biological evaluation of cyclic dnCSPs. The cyclic dnCSPs will be assessed for inhibition of competence induction using the β-gal, lux (FIG. 11) or luc (FIG. 15) reporter systems we have optimized for the analysis of a large number of signal variants in 96-well plates. All assays will be performed in triplicates and independently three times. Serial dilutions of dnCSPs will be conducted to determine the EC50 and IC50 values of promising dnCSPs through initial screening. Data from reporter assays will be analyzed using the GraphPad Prism software. The lead dnCSPs will be assessed for their therapeutic potential using multiple in vitro assays, including attenuation of ComX-induction (reporter systems), genetic transformation, allolysis (zymogram assays), and release of PLY (hemolysis & Western blots). Lastly, the pneumococcal competence system regulates biofilm formation, which is important for the pathogenesis of […]. The ability of the dnCSPs to inhibit biofilm formation will be evaluated after 24 hr of growth on 1% BSA coated coverslips placed in flat-bottom polystyrene tissue culture plates by staining with FilmTracer LIVE/DEAD Biofilm viability kit (Invitrogen, L10316), and visualized using a confocal microscope and Z-stacked to construct 3D-images.

In another experiment the target is ComD2 receptor (Streptococcus pneumoniae serotype 4, UniProt A0A0H2US84). The experiment in a line: cell-based. It is filed as cell-based.
ComD2 receptor, sequence (A0A0H2US84 entry or part of it): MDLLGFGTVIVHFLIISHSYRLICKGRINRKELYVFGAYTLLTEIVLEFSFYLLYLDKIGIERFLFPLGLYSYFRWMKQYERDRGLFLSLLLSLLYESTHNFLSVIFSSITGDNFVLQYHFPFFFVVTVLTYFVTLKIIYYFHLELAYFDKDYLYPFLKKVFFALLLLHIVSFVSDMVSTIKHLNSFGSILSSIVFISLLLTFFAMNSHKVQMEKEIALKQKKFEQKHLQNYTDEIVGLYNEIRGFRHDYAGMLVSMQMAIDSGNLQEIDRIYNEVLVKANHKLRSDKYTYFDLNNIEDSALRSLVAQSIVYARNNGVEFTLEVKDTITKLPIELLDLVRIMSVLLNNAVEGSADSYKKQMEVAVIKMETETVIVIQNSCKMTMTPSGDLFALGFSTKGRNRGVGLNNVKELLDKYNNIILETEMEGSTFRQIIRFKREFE
Excerpt: as §1, with “The cyclic dnCSPs will be assessed for inhibition of competence induction using the β-gal, lux (FIG. 11) or luc (FIG. 15) reporter systems we have optimized for the analysis of a large number of signal variants in 96-well plates.” left out

Read-outs that look alike come from different tables or passages of the source. Bridge positions count the residues as written; N and C are the ends. Square brackets hold non-standard residues; d marks the D form. Peptide text beside a SMILES is read from it. Dab = NCC[C@H](N)C(=O)O; Dap = NC[C@H](N)C(=O)O

ComD1 receptor, sequence (A0A0H2ZM50 entry or part of it): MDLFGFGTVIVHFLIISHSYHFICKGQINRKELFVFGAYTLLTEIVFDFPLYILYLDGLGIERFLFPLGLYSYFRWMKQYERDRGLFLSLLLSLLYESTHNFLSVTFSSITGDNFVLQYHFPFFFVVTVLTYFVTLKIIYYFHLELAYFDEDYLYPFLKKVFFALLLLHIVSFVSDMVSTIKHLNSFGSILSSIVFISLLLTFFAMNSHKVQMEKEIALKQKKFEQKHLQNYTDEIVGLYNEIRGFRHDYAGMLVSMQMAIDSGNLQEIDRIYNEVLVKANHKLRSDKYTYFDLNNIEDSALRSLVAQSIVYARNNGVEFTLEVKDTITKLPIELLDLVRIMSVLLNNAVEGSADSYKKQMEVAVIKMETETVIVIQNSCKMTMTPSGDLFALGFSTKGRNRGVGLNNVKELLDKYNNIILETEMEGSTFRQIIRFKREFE

As usually defined, the EC50 is the concentration that produces a half-maximal response. Turning to `CC[C@H](C)[C@H](NC(=O)[C@H](Cc1ccccc1)NC(=O)[C@@H]1CC(=O)NCCCC[C@H](NC(=O)[C@H](CO)NC(=O)[C@H](CC(C)C)NC(=O)[C@H](CCCNC(=N)N)NC(=O)[C@H](CCSC)NC(=O)[C@@H](N)CCC(=O)O)C(=O)N[C@@H](Cc2ccccc2)C(=O)N[C@@H](Cc2ccccc2)C(=O)N[C@@H](CCCNC(=N)N)C(=O)N1)C(=O)N[C@@H](CC(C)C)C(=O)N[C@@H](CCC(N)=O)C(=O)N[C@@H](CCCNC(=N)N)C(=O)N[C@@H](CCCCN)C(=O)N[C@@H](CCCCN)C(=O)O` [CSP1-cyc(K6D10)], the EC50 at ComD1 receptor was 258 nM; on ComD2 receptor, greater than 1000 nM. In addition, at ComD1 receptor, the “maximal induction of comX compared to CSP1” value turned out to be 44%.

Turning to `CC[C@H](C)[C@@H]1NC(=O)[C@H](Cc2ccccc2)NC(=O)[C@@H](NC(=O)[C@H](CCCNC(=N)N)NC(=O)[C@H](Cc2ccccc2)NC(=O)[C@H](Cc2ccccc2)NC(=O)[C@H](CCCCN)NC(=O)[C@H](CO)NC(=O)[C@H](CC(C)C)NC(=O)[C@H](CCCNC(=N)N)NC(=O)[C@H](CCSC)NC(=O)[C@@H](N)CCC(=O)O)CCCCNC(=O)C[C@@H](C(=O)N[C@@H](CCCNC(=N)N)C(=O)N[C@@H](CCCCN)C(=O)N[C@@H](CCCCN)C(=O)O)NC(=O)[C@H](CC(C)C)NC1=O` [CSP1-cyc(K10D14)] (H-EMRLSKFFRKFILDRKK-OH; lactam 10-14; N-terminus and C-terminus assumed), at ComD1 receptor, the EC50 came out at 257 nM.

On to `CC[C@H](C)[C@H](NC(=O)[C@H](Cc1ccccc1)NC(=O)[C@H](CC(=O)O)NC(=O)[C@@H]1CC(=O)NCCCC[C@H](NC(=O)[C@H](CO)NC(=O)[C@H](CC(C)C)NC(=O)[C@H](CCCNC(=N)N)NC(=O)[C@H](CCSC)NC(=O)[C@@H](N)CCC(=O)O)C(=O)N[C@@H](Cc2ccccc2)C(=O)N[C@@H](Cc2ccccc2)C(=O)N1)C(=O)N[C@@H](CC(C)C)C(=O)N[C@@H](CCC(N)=O)C(=O)N[C@@H](CCCNC(=N)N)C(=O)N[C@@H](CCCCN)C(=O)N[C@@H](CCCCN)C(=O)O` [CSP1-cyc(K6D9)] (H-EMRLSKFFDDFILQRKK-OH; lactam 6-9; N-terminus and C-terminus assumed), for which the EC50 on ComD1 receptor was greater than 1000 nM; on ComD2 receptor it was 528 nM.

What is called IC50 is the midpoint of a concentration-inhibition curve. In the case of `CC[C@H](C)[C@H](NC(=O)[C@H](Cc1ccccc1)NC(=O)[C@@H]1CCC(=O)NC[C@H](NC(=O)[C@H](CO)NC(=O)[C@H](CC(C)C)NC(=O)[C@H](CCCNC(=N)N)NC(=O)[C@H](CCSC)NC(=O)[C@H](C)N)C(=O)N[C@@H](Cc2ccccc2)C(=O)N[C@@H](Cc2ccccc2)C(=O)N[C@@H](CCCNC(=N)N)C(=O)N1)C(=O)N[C@@H](CC(C)C)C(=O)N[C@@H](CCC(N)=O)C(=O)N[C@@H](CCCNC(=N)N)C(=O)O` [CSP1-E1A-des-K16K17-cyc(Dap6E10), A-M-R-L-S-(Dap-F-F-R-E)-F-I-L-Q-R] (H-AMRLS[Dap]FFREFILQR-OH; lactam 6-10; N-terminus and C-terminus assumed), on ComD1 receptor, the IC50 was determined as 7.57 nM and the “higher inhibition potency against the ComD1 receptor compared to parent CSP1-E1A-cyc(Dap6E10)” value is roughly 10 fold. On ComD2 receptor, the IC50 stood at 67.2 nM and the “higher inhibition potency against the ComD2 receptor compared to parent CSP1-E1A-cyc(Dap6E10)” value is listed as 3 fold.

`CC[C@H](C)[C@H](NC(=O)[C@H](Cc1ccccc1)NC(=O)[C@@H]1CCC(=O)NCCCC[C@H](NC(=O)[C@H](CO)NC(=O)[C@H](CC(C)C)NC(=O)[C@H](CCCNC(=N)N)NC(=O)[C@H](CCSC)NC(=O)[C@@H](N)CCC(=O)O)C(=O)N[C@@H](Cc2ccccc2)C(=O)N[C@@H](Cc2ccccc2)C(=O)N[C@@H](CCCNC(=N)N)C(=O)N1)C(=O)N[C@@H](CC(C)C)C(=O)N[C@@H](CCC(N)=O)C(=O)N[C@@H](CCCNC(=N)N)C(=O)N[C@@H](CCCCN)C(=O)N[C@@H](CCCCN)C(=O)O` [CSP1-cyc(K6E10)]: the EC50 on ComD1 receptor was 350 nM; at ComD2 receptor, greater than 1000 nM.

Consider `CC[C@H](C)[C@H](NC(=O)[C@H](Cc1ccccc1)NC(=O)[C@@H]1CCC(=O)NC[C@H](NC(=O)[C@H](CO)NC(=O)[C@H](CC(C)C)NC(=O)[C@H](CCCNC(=N)N)NC(=O)[C@H](CCSC)NC(=O)[C@@H](N)CCC(=O)O)C(=O)N[C@@H](Cc2ccccc2)C(=O)N[C@@H](Cc2ccccc2)C(=O)N[C@@H](CCCNC(=N)N)C(=O)N1)C(=O)N[C@@H](CC(C)C)C(=O)N[C@@H](CCC(N)=O)C(=O)N[C@@H](CCCNC(=N)N)C(=O)N[C@@H](CCCCN)C(=O)N[C@@H](CCCCN)C(=O)O` [CSP1-cyc(Dap6E10)] (H-EMRLS[Dap]FFREFILQRKK-OH; lactam 6-10; N-terminus and C-terminus assumed), for which, at ComD1 receptor, the EC50 stood at 14.6 nM, the “maximal induction of comX compared to CSP1” value worked out at 100% and the “potency higher than CSP1-cyc(Orn6D10)” value worked out at 10 fold. In addition, on ComD2 receptor, the EC50 was found to be 13.1 nM and the “potency against ComD2 receptor higher than CSP2” value is “about 4 fold”.

With `CC[C@H](C)[C@@H]1NC(=O)[C@H](Cc2ccccc2)NC(=O)[C@H](CC(=O)O)NC(=O)[C@H](CCCNC(=N)N)NC(=O)[C@H](Cc2ccccc2)NC(=O)[C@H](Cc2ccccc2)NC(=O)[C@@H](NC(=O)[C@H](CO)NC(=O)[C@H](CC(C)C)NC(=O)[C@H](CCCNC(=N)N)NC(=O)[C@H](CCSC)NC(=O)[C@@H](N)CCC(=O)O)CCCCNC(=O)C[C@@H](C(=O)N[C@@H](CCCNC(=N)N)C(=O)N[C@@H](CCCCN)C(=O)N[C@@H](CCCCN)C(=O)O)NC(=O)[C@H](CC(C)C)NC1=O` [CSP1-cyc(K6D14)] (H-EMRLSKFFRDFILDRKK-OH; lactam 6-14; N-terminus and C-terminus assumed), the EC50 on ComD1 receptor and on ComD2 receptor was greater than 1000 nM throughout.

In the case of CSP1-E1AK6A (AMRLSAFFRDFILQRKK), the “inhibition of ComD receptors” value in the experiment with ComD1 receptor was “could only strongly inhibit the ComD1 receptor”.

For the compound `CC[C@H](C)[C@H](NC(=O)[C@H](Cc1ccccc1)NC(=O)[C@@H]1CCC(=O)NCC[C@H](NC(=O)[C@H](CO)NC(=O)[C@H](CC(C)C)NC(=O)[C@H](CCCNC(=N)N)NC(=O)[C@H](CCSC)NC(=O)[C@@H](N)CCC(=O)O)C(=O)N[C@@H](Cc2ccccc2)C(=O)N[C@@H](Cc2ccccc2)C(=O)N[C@@H](CCCNC(=N)N)C(=O)N1)C(=O)N[C@@H](CC(C)C)C(=O)N[C@@H](CCC(N)=O)C(=O)N[C@@H](CCCNC(=N)N)C(=O)N[C@@H](CCCCN)C(=O)N[C@@H](CCCCN)C(=O)O` [CSP1-cyc(Dab6E10)] (H-EMRLS[Dab]FFREFILQRKK-OH; lactam 6-10; N-terminus and C-terminus assumed), on ComD1 receptor, the EC50 was 12.2 nM, the “maximal induction of comX compared to CSP1” value turned out to be 100% and the “potency higher than CSP1-cyc(Orn6D10)” value worked out at 10 fold. A half-maximal response on ComD2 receptor (EC50) required 31.4 nM.

In the case of `CC[C@H](C)[C@H](NC(=O)[C@H](Cc1ccccc1)NC(=O)[C@@H]1CCC(=O)NCC[C@H](NC(=O)[C@H](CO)NC(=O)[C@H](CC(C)C)NC(=O)[C@H](CCCNC(=N)N)NC(=O)[C@H](CCSC)NC(=O)[C@H](C)N)C(=O)N[C@@H](Cc2ccccc2)C(=O)N[C@@H](Cc2ccccc2)C(=O)N[C@@H](CCCNC(=N)N)C(=O)N1)C(=O)N[C@@H](CC(C)C)C(=O)N[C@@H](CCC(N)=O)C(=O)N[C@@H](CCCNC(=N)N)C(=O)N[C@@H](CCCCN)C(=O)N[C@@H](CCCCN)C(=O)O` [CSP1-E1A-cyc(Dab6E10), A-M-R-L-S-(Dab-F-F-R-E)-F-I-L-Q-R-K-K] (H-AMRLS[Dab]FFREFILQRKK-OH; lactam 6-10; N-terminus and C-terminus assumed), the IC50 against ComD1 receptor is 173 nM; against ComD2 receptor, greater than 1000 nM; on ComD2 receptor (read-out: ComD2 IC50 (95% CI), Table 2, β-gal reporter, IC50 values in italic font), greater than 1000 nM.

As for `CC[C@H](C)[C@H](NC(=O)[C@H](Cc1ccccc1)NC(=O)[C@@H]1CC(=O)NCCC[C@H](NC(=O)[C@H](CO)NC(=O)[C@H](CC(C)C)NC(=O)[C@H](CCCNC(=N)N)NC(=O)[C@H](CCSC)NC(=O)[C@@H](N)CCC(=O)O)C(=O)N[C@@H](Cc2ccccc2)C(=O)N[C@@H](Cc2ccccc2)C(=O)N[C@@H](CCCNC(=N)N)C(=O)N1)C(=O)N[C@@H](CC(C)C)C(=O)N[C@@H](CCC(N)=O)C(=O)N[C@@H](CCCNC(=N)N)C(=O)N[C@@H](CCCCN)C(=O)N[C@@H](CCCCN)C(=O)O` [CSP1-cyc(Orn6D10)], at ComD1 receptor, the EC50 came to 193 nM and the “maximal induction of comX compared to CSP1” value stood at 100%. This compound displayed an EC50 at ComD2 receptor greater than 1000 nM.

The record behind these values is patent US12528838B2, “Cyclic dominant negative competence stimulating peptide analogs and methods of treating Streptococcus pneumoniae infections” (priority 2019, dated 2026).
